Measured values reported in ChEMBL document CHEMBL1681651, “A broad spectrum anticancer nucleoside with selective toxicity against human colon cells in vitro” (2011).

Legend:
Type in all cases: functional
NCI-H226 [1] = assay: Growth inhibition of human NCI-H226 cells assessed as cell growth at 10 uM after 48 hrs by SRB assay; details: NCI-H226, 48 h, read-out: Activity
M14 = assay: Growth inhibition of human M14 cells assessed as cell growth at 10 uM after 48 hrs by SRB assay; details: M14, 48 h, read-out: Activity
SK-MEL-5 = assay: Growth inhibition of human SK-MEL-5 cells assessed as cell growth at 10 uM after 48 hrs by SRB assay; details: SK-MEL-5, 48 h, read-out: Activity
MDA-MB-231 [2] = assay: Growth inhibition of human MDA-MB-231 cells assessed as cell growth at 10 uM after 48 hrs by SRB assay; details: MDA-MB-231, 48 h, read-out: Activity
RXF 393 = assay: Growth inhibition of human RXF393 cells assessed as cell growth at 1 uM after 48 hrs by SRB assay; details: RXF 393, 48 h, read-out: Activity
[3] = Growth inhibition of human […] cells after 48 hrs by […] growth inhibition assay
NCI-H522 = assay: Growth inhibition of human NCI-H522 cells after 48 hrs by […] growth inhibition assay; details: NCI-H522, 48 h
KM12 [4] = assay: Growth inhibition of human KM12 cells after 48 hrs by […] growth inhibition assay; details: KM12, 48 h
Malme-3M = assay: Growth inhibition of human MALME-3M cells after 48 hrs by […] growth inhibition assay
SF-295 [5] = assay: Growth inhibition of human SF295 cells after 48 hrs by […] growth inhibition assay; details: SF-295, 48 h
A498 = assay: Growth inhibition of human A498 cells after 48 hrs by […] growth inhibition assay; details: A498, 48 h
UO-31 [6] = assay: Growth inhibition of human UO31 cells after 48 hrs by […] growth inhibition assay; details: UO-31, 48 h
EKVX = assay: Growth inhibition of human EKVX cells assessed as cell growth at 0.1 uM after 48 hrs by SRB assay; details: read-out: Activity
HCT-15 = assay: Growth inhibition of human HCT15 cells assessed as cell growth at 0.1 uM after 48 hrs by SRB assay; details: HCT-15, 48 h, read-out: Activity
SF-539 = assay: Growth inhibition of human SF539 cells assessed as cell growth at 0.1 uM after 48 hrs by SRB assay; details: SF-539, 48 h, read-out: Activity
IGROV-1 = assay: Growth inhibition of human IGROV1 cells assessed as cell growth at 0.1 uM after 48 hrs by SRB assay; details: IGROV-1, 48 h, read-out: Activity
MDA-MB-231 [7] = assay: Growth inhibition of human MDA-MB-231 cells assessed as cell growth at 0.1 uM after 48 hrs by SRB assay; details: MDA-MB-231, 48 h, read-out: Activity
A549 = assay: Growth inhibition of human A549 cells assessed as cell growth at 100 uM after 48 hrs by SRB assay; details: A549, 48 h, read-out: Activity
HT-29 = assay: Growth inhibition of human HT-29 cells assessed as cell growth at 100 uM after 48 hrs by SRB assay; details: HT-29, 48 h, read-out: Activity
KM12 [8] = assay: Growth inhibition of human KM12 cells assessed as cell growth at 100 uM after 48 hrs by SRB assay; details: KM12, 48 h, read-out: Activity
SF-268 [9] = assay: Growth inhibition of human SF268 cells assessed as cell growth at 100 uM after 48 hrs by SRB assay; details: SF-268, 48 h, read-out: Activity
UACC-257 = assay: Growth inhibition of human UACC257 cells assessed as cell growth at 100 uM after 48 hrs by SRB assay; details: UACC-257, 48 h, read-out: Activity
UO-31 [10] = assay: Growth inhibition of human UO31 cells assessed as cell growth at 100 uM after 48 hrs by SRB assay; details: UO-31, 48 h, read-out: Activity
NCI-H226 [11] = assay: Growth inhibition of human NCI-H226 cells assessed as cell growth at 1 mM after 48 hrs by SRB assay; details: NCI-H226, 48 h, read-out: Activity
KM12 [12] = assay: Growth inhibition of human KM12 cells assessed as cell growth at 1 mM after 48 hrs by SRB assay; details: KM12, 48 h, read-out: Activity
U-251 = assay: Growth inhibition of human U251 cells assessed as cell growth at 1 mM after 48 hrs by SRB assay; details: U-251, 48 h, read-out: Activity
CCRF-CEM = assay: Growth inhibition of human CCRF-CEM cells assessed as cell growth at 1 uM after 48 hrs by SRB assay; details: read-out: Activity
KM12 [13] = assay: Growth inhibition of human KM12 cells assessed as cell growth at 1 uM after 48 hrs by SRB assay; details: KM12, 48 h, read-out: Activity
SF-268 [14] = assay: Growth inhibition of human SF268 cells assessed as cell growth at 1 uM after 48 hrs by SRB assay; details: SF-268, 48 h, read-out: Activity
SF-295 [15] = assay: Growth inhibition of human SF295 cells assessed as cell growth at 1 uM after 48 hrs by SRB assay; details: SF-295, 48 h, read-out: Activity
SNB-19 = assay: Growth inhibition of human SNB19 cells assessed as cell growth at 1 uM after 48 hrs by SRB assay; details: SNB-19, 48 h, read-out: Activity
SK-MEL-2 = assay: Growth inhibition of human SK-MEL-2 cells assessed as cell growth at 1 uM after 48 hrs by SRB assay; details: SK-MEL-2, 48 h, read-out: Activity
OVCAR-4 = assay: Growth inhibition of human OVCAR4 cells assessed as cell growth at 1 uM after 48 hrs by SRB assay; details: OVCAR-4, 48 h, read-out: Activity
[16] = read-out: LC50 (the source's name)
[17] = read-out: pLC50 (the source's name) (converted)

CNC(=O)OC[C@H]1O[C@@H](n2cnc3c(NC(=O)Nc4ccccc4)ncnc32)[C@H](O[Si](C)(C)C(C)(C)C)[C@@H]1O[Si](C)(C)C(C)(C)C
growth at 10 µM (NCI-H226 [1]): 93.2%
growth at 10 µM (M14): 102%
growth at 10 µM (SK-MEL-5): 101%
growth at 10 µM (MDA-MB-231 [2]): 110%

CNC(=O)NC[C@H]1O[C@@H](n2cnc3c(NC(=O)Nc4ccccc4)ncnc32)[C@H](O[Si](C)(C)C(C)(C)C)[C@@H]1O[Si](C)(C)C(C)(C)C
growth at 1 µM (RXF 393): 73%
growth at 10 µM (NCI-H226 [1]): 105%
GI50 ([3]; read-out: GI50): 3.27 µM
CC50 [3, 16]: > 100 µM
TGI ([3]; read-out: TGI): > 100 µM
GI50 ([3]; read-out: pGI50 (converted)): 3.31 µM
CC50 [3, 17]: > 100 µM
TGI ([3]; read-out: pTGI (converted)): > 100 µM
GI50 (NCI-H522; read-out: GI50): 2.39 µM
CC50 (NCI-H522; [16]): > 100 µM
TGI (NCI-H522; read-out: TGI): 7.14 µM
GI50 (NCI-H522; read-out: pGI50 (converted)): 2.4 µM
CC50 (NCI-H522; [17]): > 100 µM
TGI (NCI-H522; read-out: pTGI (converted)): 7.08 µM
GI50 (KM12 [4]; read-out: GI50): 2.13 µM
CC50 (KM12 [4]; [16]): 8.05 µM
TGI (KM12 [4]; read-out: TGI): 4.14 µM
GI50 (KM12 [4]; read-out: pGI50 (converted)): 2.14 µM
CC50 (KM12 [4]; [17]): 8.13 µM
TGI (KM12 [4]; read-out: pTGI (converted)): 4.17 µM
GI50 (Malme-3M; read-out: GI50): 2.98 µM
LC50 (concentration killing 50% of cells) (Malme-3M; read-out: LC50): > 100 µM
TGI (Malme-3M; read-out: TGI): 9.84 µM
GI50 (Malme-3M; read-out: pGI50 (converted)): 2.95 µM
LC50 (concentration killing 50% of cells) (Malme-3M; read-out: pLC50 (converted)): > 100 µM
TGI (Malme-3M; read-out: pTGI (converted)): 9.77 µM
GI50 (SF-295 [5]; read-out: GI50): 3.84 µM
LC50 (SF-295 [5]; read-out: LC50): > 100 µM
TGI (SF-295 [5]; read-out: TGI): 31.8 µM
GI50 (SF-295 [5]; read-out: pGI50 (converted)): 3.8 µM
LC50 (SF-295 [5]; read-out: pLC50 (converted)): > 100 µM
TGI (SF-295 [5]; read-out: pTGI (converted)): 31.6 µM
GI50 (A498; read-out: GI50): 2.03 µM
CC50 (A498; [16]): 19.5 µM
TGI (A498; read-out: TGI): 4.96 µM
GI50 (A498; read-out: pGI50 (converted)): 2.04 µM
CC50 (A498; [17]): 19.5 µM
TGI (A498; read-out: pTGI (converted)): 5.01 µM
GI50 (UO-31 [6]; read-out: GI50): 2.5 µM
CC50 (UO-31 [6]; [16]): > 100 µM
TGI (UO-31 [6]; read-out: TGI): 9.56 µM
GI50 (UO-31 [6]; read-out: pGI50 (converted)): 2.51 µM
CC50 (UO-31 [6]; [17]): > 100 µM
TGI (UO-31 [6]; read-out: pTGI (converted)): 9.55 µM
growth at 0.1 µM (EKVX): 105%
growth at 0.1 µM (HCT-15): 105%
growth at 0.1 µM (SF-539): 100%
growth at 0.1 µM (IGROV-1): 100%
growth at 0.1 µM (MDA-MB-231 [7]): 105%
growth at 10 µM (M14): 105%
growth at 10 µM (SK-MEL-5): 89%
growth at 10 µM (MDA-MB-231 [2]): 106%
growth at 100 µM (A549): 4%
growth at 100 µM (HT-29): -80%
growth at 100 µM (KM12 [8]): -66%
growth at 100 µM (SF-268 [9]): 8%
growth at 100 µM (UACC-257): 11%
growth at 100 µM (UO-31 [10]): -2%
growth at 1000 µM (NCI-H226 [11]): -48%
growth at 1000 µM (KM12 [12]): -74%
growth at 1000 µM (U-251): -46%
growth at 1 µM (CCRF-CEM): 109%
growth at 1 µM (KM12 [13]): 111%
growth at 1 µM (SF-268 [14]): 106%
growth at 1 µM (SF-295 [15]): 107%
growth at 1 µM (SNB-19): 100%
growth at 1 µM (SK-MEL-2): 110%
growth at 1 µM (OVCAR-4): 108%
